As a reminder, the EC50 is the concentration at which the effect is half-maximal.

Here are results for 26 compounds from patent US20090170812A1, “Transcription factor modulating compounds and methods of use thereof” (priority 2006, published 2009).

A value given as a limit tells only on which side of the number the result lay.

Series [1] has as its system Yersinia pseudotuberculosis.
The target in series [2] is T1, ExsA (Pseudomonas aeruginosa, UniProt P26993).
T1 construct: made in house
T1 sequence (P26993 1-278): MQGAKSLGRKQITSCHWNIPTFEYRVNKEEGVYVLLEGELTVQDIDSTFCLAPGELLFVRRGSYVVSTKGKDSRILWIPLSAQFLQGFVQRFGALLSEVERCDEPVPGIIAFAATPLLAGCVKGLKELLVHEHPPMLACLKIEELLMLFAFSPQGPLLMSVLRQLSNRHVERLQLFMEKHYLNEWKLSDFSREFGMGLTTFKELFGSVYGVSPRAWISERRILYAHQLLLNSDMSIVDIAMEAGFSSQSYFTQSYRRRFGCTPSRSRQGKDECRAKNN
The experiment in a line: In vitro activity of Mar inhibitors against ExsA: cell-free DNA binding assay. The settings on record: purified ExsA from P. aeruginosa, inhibition of DNA binding in vitro.

Series [3] relates to P. aeruginosa. The experiment in a line: Whole cell assay: cytotoxicity of P. aeruginosa toward J774 cells (CytoTox 96, LDH release). Conditions: percent cytotoxicity of treated P. aeruginosa toward J774 cells. Background: LDH in the medium is a marker of cell lysis.
In series [4] the target is LcrF (VirF) (Yersinia pestis, UniProt P28808). The experiment in a line: biochemical. Format: binding, Y. pseudotuberculosis.
Chain of LcrF (VirF) (P28808 whole entry, looked up): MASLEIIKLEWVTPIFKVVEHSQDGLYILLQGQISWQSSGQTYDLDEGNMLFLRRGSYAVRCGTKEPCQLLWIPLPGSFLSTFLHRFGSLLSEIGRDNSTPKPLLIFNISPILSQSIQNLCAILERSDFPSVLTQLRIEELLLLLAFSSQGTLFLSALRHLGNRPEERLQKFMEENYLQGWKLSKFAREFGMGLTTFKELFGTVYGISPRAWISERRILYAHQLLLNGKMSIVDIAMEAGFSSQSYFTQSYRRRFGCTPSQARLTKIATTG

On to `N#Cc1ccc2nc(-c3ccc(NC(=O)/C=C/c4ccc(F)cc4)cc3)n(O)c2c1` [Compound B], for which the “Cytotoxicity at 50 μg/mL Yersinia” value in series [1] is reported as “** (key: *: percent cytotoxicity above 75% at 50 μg/mL; **: cytotoxicities below 75% at 50 μg/mL)”. Further, the EC50 in series [2] and in series [4] was below 10 µM each time. In addition, the “Cytotoxicity at 50 μg/mL Pseudomonas” value in series [3] is reported as “** (cytotoxicities below 75% at 50 mg/mL)”.

As for `O=C(Nc1ccc(-c2nc3ccc([N+](=O)[O-])cc3n2O)cc1)/C(=C/c1ccccc1)c1ccccc1` [F], the “Cytotoxicity at 50 μg/mL Yersinia” value in series [1] is recorded as “* (key: *: percent cytotoxicity above 75% at 50 μg/mL; **: cytotoxicities below 75% at 50 μg/mL)”. The results for the EC50 in series [2] and in series [4] were 10.1 to 25 µM and below 10 µM, respectively. The “Cytotoxicity at 50 μg/mL Pseudomonas” value in series [3] was “** (cytotoxicities below 75% at 50 mg/mL)”.

Take `CC(=O)c1ccc(C(=O)Nc2ccc(-c3nc4ccc([N+](=O)[O-])cc4n3O)cc2F)cc1` [Compound BA, 4-Acetyl-N-[2-fluoro-4-(1-hydroxy-6-nitro-1H-benzoimidazol-2-yl)-phenyl]-benzamide]: the “Cytotoxicity at 50 μg/mL Yersinia” value in series [1] is given as “* (key: *: percent cytotoxicity above 75% at 50 μg/mL; **: cytotoxicities below 75% at 50 μg/mL)”. The results for the 50% effective concentration (EC50) in series [2] and in series [4] were below 10 µM and 10.1 to 25 µM, respectively. The “Cytotoxicity at 50 μg/mL Pseudomonas” value in series [3] is reported as “* (percent cytotoxicities above 75% at 50 mg/mL)”.

With `CCc1cc(-c2nc3ccc([N+](=O)[O-])cc3n2O)ccc1NC(=O)/C=C/c1ccc(C)cc1` [AE], in series [1], the “Cytotoxicity at 50 μg/mL Yersinia” value is given as “* (key: *: percent cytotoxicity above 75% at 50 μg/mL; **: cytotoxicities below 75% at 50 μg/mL)”. Besides, the 50% effective concentration (EC50) in series [2] and in series [4] was below 10 µM each time. Moreover, the “Cytotoxicity at 50 μg/mL Pseudomonas” value in series [3] is “* (percent cytotoxicities above 75% at 50 mg/mL)”.

As to `COc1cc(NC(=O)c2ccc(C(C)=O)cc2)ccc1-c1nc2ccc([N+](=O)[O-])cc2n1O` [BG], the “Cytotoxicity at 50 μg/mL Yersinia” value in series [1] is recorded as “* (key: *: percent cytotoxicity above 75% at 50 μg/mL; **: cytotoxicities below 75% at 50 μg/mL)”. Besides, the EC50 is 10.1 to 25 µM in series [2] and above 25.1 µM in series [4]. The “Cytotoxicity at 50 μg/mL Pseudomonas” value in series [3] is listed as “** (cytotoxicities below 75% at 50 mg/mL)”.

As for `O=C(/C=C/c1ccc(F)cc1)Nc1ccc(-c2nc3ccc(-n4cccn4)cc3n2O)cc1` [Compound CL, (E)-3-(4-Fluoro-phenyl)-N-[4-(1-hydroxy-6-pyrazol-1-yl-1H-benzoimidazol-2-yl)-phenyl]-acrylamide], the concentration for a half-maximal effect (EC50) in series [2] and in series [4] was above 25.1 µM each time. The “Cytotoxicity at 50 μg/mL Pseudomonas” value in series [3] is “* (percent cytotoxicities above 75% at 50 mg/mL)”.

Take `CC(=O)c1ccc(/C=C/C(=O)Nc2ccc(-c3nc4ccc([N+](=O)[O-])cc4n3O)cc2)cc1` [Compound BQ, (E)-3-(4-Acetyl-phenyl)-N-[4-(1-hydroxy-6-nitro-1H-benzoimidazol-2-yl)-phenyl]-acrylamide]: the 50% effective concentration (EC50) in series [2] is below 10 µM; in series [4], 10.1 to 25 µM. In addition, the “Cytotoxicity at 50 μg/mL Pseudomonas” value in series [3] was “** (cytotoxicities below 75% at 50 mg/mL)”.

`CCOc1cc2nc(-c3ccc(NC(=O)/C=C/c4ccc(F)cc4)cc3)n(O)c2cc1[N+](=O)[O-]` [Compound BJ, (E)-N-[4-(5-Ethoxy-1-hydroxy-6-nitro-1H-benzoimidazol-2-yl)-phenyl]-3-(4-fluoro-phenyl)-acrylamide]: the “Cytotoxicity at 50 μg/mL Yersinia” value in series [1] is “** (key: *: percent cytotoxicity above 75% at 50 μg/mL; **: cytotoxicities below 75% at 50 μg/mL)”. Also, the 50% effective concentration (EC50) is below 10 µM in series [2] and 10.1 to 25 µM in series [4]. Further, in series [3], the “Cytotoxicity at 50 μg/mL Pseudomonas” value is “** (cytotoxicities below 75% at 50 mg/mL)”.

On to `Cc1cc(C(=O)Nc2ccc(-c3nc4ccc([N+](=O)[O-])cc4n3O)cc2)ccc1F` [S], for which the “Cytotoxicity at 50 μg/mL Yersinia” value in series [1] is given as “* (key: *: percent cytotoxicity above 75% at 50 μg/mL; **: cytotoxicities below 75% at 50 μg/mL)”. Besides, the EC50 in series [2] and in series [4] was 10.1 to 25 µM in each case. Besides, in series [3], the “Cytotoxicity at 50 μg/mL Pseudomonas” value is listed as “* (percent cytotoxicities above 75% at 50 mg/mL)”.

Consider `CC(=O)c1ccc(C(=O)Nc2ccc(-c3nc4ccc(-n5ccnc5)cc4n3O)cc2)cc1` [Compound CN, 4-Acetyl-N-[4-(1-hydroxy-6-imidazol-1-yl-1H-benzoimidazol-2-yl)-phenyl]-benzamide], for which the “Cytotoxicity at 50 μg/mL Pseudomonas” value in series [3] is given as “* (percent cytotoxicities above 75% at 50 mg/mL)”.

`CC(=O)c1ccc(/C=C/C(=O)Nc2ccc(-c3nc4cc(OCCN5CCN(C)CC5)c([N+](=O)[O-])cc4n3O)cc2)cc1` [CI]: the EC50 in series [2] and in series [4] was below 10 µM throughout. Also, the “Cytotoxicity at 50 μg/mL Pseudomonas” value in series [3] was “** (cytotoxicities below 75% at 50 mg/mL)”.

In the case of `O=C(/C=C/c1ccc(F)cc1)Nc1ccc(-c2nc3cc(F)c([N+](=O)[O-])cc3n2O)cc1` [Compound BO, N-[4-(5-Fluoro-1-hydroxy-6-nitro-1H-benzoimidazol-2-yl)-phenyl]-3-(4-fluoro-cinnamyl)-amide], the concentration for a half-maximal effect (EC50) in series [2] and in series [4] was above 25.1 µM in each case. In addition, the “Cytotoxicity at 50 μg/mL Pseudomonas” value in series [3] is “** (cytotoxicities below 75% at 50 mg/mL)”.

On to `CN1CCN(CCOc2cc3nc(-c4ccc(NC(=O)/C=C/c5ccc(F)cc5)cc4)n(O)c3cc2[N+](=O)[O-])CC1` [CF], for which the EC50 in series [2] and in series [4] was below 10 µM each time. For the same compound, in series [3], the “Cytotoxicity at 50 μg/mL Pseudomonas” value is reported as “* (percent cytotoxicities above 75% at 50 mg/mL)”.

Regarding `CN(C)CCN(C)c1cc2nc(-c3ccc(NC(=O)/C=C/c4ccc(F)cc4)cc3)n(O)c2cc1[N+](=O)[O-]` [CE], the EC50 in series [2] and in series [4] was below 10 µM in each case. Moreover, in series [3], the “Cytotoxicity at 50 μg/mL Pseudomonas” value is “** (cytotoxicities below 75% at 50 mg/mL)”.

With `O=C(C/C=C/c1ccccc1)Nc1ccc(-c2nc3ccc([N+](=O)[O-])cc3n2O)cc1` [N], in series [1], the “Cytotoxicity at 50 μg/mL Yersinia” value was “* (key: *: percent cytotoxicity above 75% at 50 μg/mL; **: cytotoxicities below 75% at 50 μg/mL)”. The “Cytotoxicity at 50 μg/mL Pseudomonas” value in series [3] is “* (percent cytotoxicities above 75% at 50 mg/mL)”. In series [4], this compound returned an EC50 above 25.1 µM.

Turning to `CC(=NO)c1ccc2nc(-c3ccc(NC(=O)c4ccc(N(C)C)cc4)cc3)n(O)c2c1` [U], the “Cytotoxicity at 50 μg/mL Yersinia” value in series [1] is recorded as “* (key: *: percent cytotoxicity above 75% at 50 μg/mL; **: cytotoxicities below 75% at 50 μg/mL)”. Also, the EC50 in series [2] and in series [4] was above 25.1 µM in each case.

On to `O=C(/C=C/c1ccc(F)cc1)Nc1ccc(-c2nc3ccc(-n4ccnc4)cc3n2O)cc1` [CH], for which the concentration for a half-maximal effect (EC50) was 10.1 to 25 µM in series [2] and above 25.1 µM in series [4]. For the same compound, the “Cytotoxicity at 50 μg/mL Pseudomonas” value in series [3] was “* (percent cytotoxicities above 75% at 50 mg/mL)”.

Turning to `O=C(/C=C/c1ccc(-n2ccnc2)cc1)Nc1ccc(-c2nc3ccc([N+](=O)[O-])cc3n2O)cc1` [Compound BK, (E)-N-[4-(1-Hydroxy-6-nitro-1H-benzoimidazol-2-yl)-phenyl]-3-(4-imidazol-1-yl-phenyl)-acrylamide], the “Cytotoxicity at 50 μg/mL Yersinia” value in series [1] is listed as “** (key: *: percent cytotoxicity above 75% at 50 μg/mL; **: cytotoxicities below 75% at 50 μg/mL)”. The EC50 in series [2] was below 10 µM. The “Cytotoxicity at 50 μg/mL Pseudomonas” value in series [3] was “** (cytotoxicities below 75% at 50 mg/mL)”.

Turning to `CC(=O)c1ccc(/C=C/C(=O)Nc2ccc(-c3nc4cc(OCCN5CCOCC5)c([N+](=O)[O-])cc4n3O)cc2)cc1` [CJ], in series [3], the “Cytotoxicity at 50 μg/mL Pseudomonas” value was “** (cytotoxicities below 75% at 50 mg/mL)”.

For `O=C(Nc1ccc(-c2nc3ccc([N+](=O)[O-])cc3n2O)cc1)c1ccc2c(c1)CCCC2=O` [BD], the “Cytotoxicity at 50 μg/mL Yersinia” value in series [1] was “* (key: *: percent cytotoxicity above 75% at 50 μg/mL; **: cytotoxicities below 75% at 50 μg/mL)”. For the same compound, the EC50 in series [2] and in series [4] was above 25.1 µM in each case.

In the case of `CC(=O)c1ccc(/C=C/C(=O)Nc2ccc(-c3nc4ccc(C#N)cc4n3O)cc2)cc1` [CK], the concentration giving a half-maximal response (EC50) in series [2] and in series [4] was 10.1 to 25 µM throughout. Besides, in series [3], the “Cytotoxicity at 50 μg/mL Pseudomonas” value is reported as “** (cytotoxicities below 75% at 50 mg/mL)”.

Consider `CN(C)C(=O)c1ccc(C(=O)Nc2ccc(-c3nc4ccc([N+](=O)[O-])cc4n3O)cc2)cc1` [BP], for which the “Cytotoxicity at 50 μg/mL Yersinia” value in series [1] is “* (key: *: percent cytotoxicity above 75% at 50 μg/mL; **: cytotoxicities below 75% at 50 μg/mL)”. The “Cytotoxicity at 50 μg/mL Pseudomonas” value in series [3] is “* (percent cytotoxicities above 75% at 50 mg/mL)”.

In the case of `CC(=O)c1ccc(C(=O)Nc2ccc(-c3nc4ccc(-n5cccn5)cc4n3O)cc2)cc1` [Compound CM, 4-Acetyl-N-[4-(1-hydroxy-6-pyrazol-1-yl-1H-benzoimidazol-2-yl)-phenyl]-benzamide], the “Cytotoxicity at 50 μg/mL Pseudomonas” value in series [3] is “* (percent cytotoxicities above 75% at 50 mg/mL)”.

Turning to `N#Cc1ccc2nc(-c3ccc(NC(=O)c4ccc(-n5ccnc5)cc4)cc3)n(O)c2c1` [CO], the EC50 was above 25.1 µM in series [2] and 10.1 to 25 µM in series [4]. Also, the “Cytotoxicity at 50 μg/mL Pseudomonas” value in series [3] is on record as “** (cytotoxicities below 75% at 50 mg/mL)”.

In the case of `CN(C)CCOc1cc2nc(-c3ccc(NC(=O)/C=C/c4ccc(F)cc4)cc3)n(O)c2cc1[N+](=O)[O-]` [CG], in series [2], the EC50 is above 25.1 µM. Also, in series [3], the “Cytotoxicity at 50 μg/mL Pseudomonas” value is given as “* (percent cytotoxicities above 75% at 50 mg/mL)”.

Consider `CCc1cc(-c2nc3ccc([N+](=O)[O-])cc3n2O)ccc1NC(=O)c1ccc(F)cc1` [Z], for which the “Cytotoxicity at 50 μg/mL Yersinia” value in series [1] is “* (key: *: percent cytotoxicity above 75% at 50 μg/mL; **: cytotoxicities below 75% at 50 μg/mL)”. In addition, the results for the EC50 in series [2] and in series [4] were above 25.1 µM and 10.1 to 25 µM, respectively.
